Like-named read-outs stand apart in the source and are kept apart here.
Tests used:
[1] = Dissolution kinetics of dihydropyridines (figure 7); type: physicochemical; conditions: Nifédipine à l'état brut, oxodipine à l'état de coprécipité, without PROSOBEL
Text: On peut en conclure que le PROSOBEL, de façon très inattendue pour l'homme de métier, ralentit la dissolution en milieu aqueux, et permet l'obtention de formes pharmaceutiques originales et nouvelles, de dihydropyridines à biodisponibilité contrôlée.

[2] = Solubility in water (stated in words); conditions: result in words
[3] = Plasma concentrations after single oral administration of oxodipine forms to 6 healthy subjects; conditions: human, 20 mg
[4] = human, in vivo
[5] = human, in vivo, 0 min
[6] = In vitro dissolution kinetics in distilled water and intestinal juice; type: physicochemical; conditions: eau distillée and suc intestinal

cinétiques de dissolution [1]: très rapides
solubilité dans l'eau [2]: faible
concentration at 0.17 h [3]: 1.2 ng/mL
concentration at 0.33 h [3]: 1.4 ng/mL
concentration at 0.5 h [3]: 2.7 ng/mL
concentration at 0.66 h [3]: 4.2 ng/mL
concentration at 0.83 h [3]: 5 ng/mL
concentration at 1 h [3]: 6 ng/mL
concentration at 1.25 h [3]: 6.8 ng/mL
concentration at 1.5 h [3]: 6.5 ng/mL
concentration at 2 h [3]: 6.2 ng/mL
concentration at 3 h [3]: 5.1 ng/mL
concentration at 4 h [3]: 4 ng/mL
concentration at 6 h [3]: 2.4 ng/mL
concentration at 8 h [3]: 1.6 ng/mL
concentration at 10 h [3]: 1.4 ng/mL
concentration at 12 h [3]: 1.2 ng/mL
concentration at 14 h [3]: 1 ng/mL
concentration at 24 h [3]: 1.2 ng/mL
% DE DOSE ENTRES DANS L'ORGANISME APRES ABSORPTION ET PASSAGE HEPATIQUE ([4]; 10.2 min): 2,5%
% DE DOSE ENTRES DANS L'ORGANISME APRES ABSORPTION ET PASSAGE HEPATIQUE ([4]; 19.8 min): 1,6%
% DE DOSE ENTRES DANS L'ORGANISME APRES ABSORPTION ET PASSAGE HEPATIQUE ([4]; 30 min): 4,5%
% DE DOSE ENTRES DANS L'ORGANISME APRES ABSORPTION ET PASSAGE HEPATIQUE ([4]; 39.6 min): 6,6%
% DE DOSE ENTRES DANS L'ORGANISME APRES ABSORPTION ET PASSAGE HEPATIQUE ([4]; 49.8 min): 7,0%
% DE DOSE ENTRES DANS L'ORGANISME APRES ABSORPTION ET PASSAGE HEPATIQUE ([4]; 60 min): 9,3%
% DE DOSE ENTRES DANS L'ORGANISME APRES ABSORPTION ET PASSAGE HEPATIQUE ([4]; 75 min): 11%
% DE DOSE ENTRES DANS L'ORGANISME APRES ABSORPTION ET PASSAGE HEPATIQUE ([4]; 90 min): 11,4%
% DE DOSE ENTRES DANS L'ORGANISME APRES ABSORPTION ET PASSAGE HEPATIQUE ([4]; 120 min): 14,0%
% DE DOSE ENTRES DANS L'ORGANISME APRES ABSORPTION ET PASSAGE HEPATIQUE ([4]; 180 min): 16,6%
% DE DOSE ENTRES DANS L'ORGANISME APRES ABSORPTION ET PASSAGE HEPATIQUE ([4]; 240 min): 18%
% DE DOSE ENTRES DANS L'ORGANISME APRES ABSORPTION ET PASSAGE HEPATIQUE ([4]; 360 min): 19,8%
% DE DOSE ENTRES DANS L'ORGANISME APRES ABSORPTION ET PASSAGE HEPATIQUE ([4]; 480 min): 21,2%
% DE DOSE ENTRES DANS L'ORGANISME APRES ABSORPTION ET PASSAGE HEPATIQUE ([4]; 600 min): 22,6%
% DE DOSE ENTRES DANS L'ORGANISME APRES ABSORPTION ET PASSAGE HEPATIQUE ([4]; 720 min): 23,8%
biodisponibilité ([4]; 720 min): 31%
BIODIOPONIBILITE RELATIVE PAR RAPPORT A LA SOLUTION ([4]; po): 31%
Concentration [5]: 0,0 ng/ml
cinétique de dissolution in vitro [6]: lente et limitée
Structure (SMILES): CCOC(=O)C1=C(C)NC(C)=C(C(=O)OC)C1c1cccc2c1OCO2 (centres unmarked) [Poudre 20mg, 1,4-dihydro 4-(2′,3′-méthylènedioxyphényl) 3,5-pyridine dicarboxylatede méthyle et d'éthyle]

Source: patent EP0412877A1, “Oral galenic form to improve bioavailability” (priority 1989, dated 1991)
